Measurements from PubChem BioAssay (NCI).
Values joined by “and” are separate entries in the source; they are usually repeats but may differ in a detail not shown here. Equal entries are not always repeated.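 Five concentrations, 48 hours, 96-well plates. The concentration for 50% growth inhibition is given as GI50. Definition used: TGI = concentration required for complete inhibition of growth.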

Columns and labels:
Assay in all cases: NCI-60 cell line screen, 48 h
786-0 renal = tested on: 786-0 renal
A549 NSCLC = tested on: A549 NSCLC
EKVX NSCLC = tested on: EKVX NSCLC
RXF 393 renal = tested on: RXF 393 renal
SK-MEL-5 melanoma = tested on: SK-MEL-5 melanoma
SW-620 colon = tested on: SW-620 colon
U251 CNS = tested on: U251 CNS
BT-549 breast = tested on: BT-549 breast
DU-145 prostate = tested on: DU-145 prostate
SR leukemia = tested on: SR leukemia

SMILES: Cc1ccc(NC(=O)C(=O)C(C(=O)c2ccc3ccccc3c2)C2OC(=O)c3ccccc32)c(C)c1 (centres undefined)
- TGI (786-0 renal): 19.7 µM
- TGI (A549 NSCLC): 62.8 µM
- TGI (EKVX NSCLC): 52 µM
- TGI (RXF 393 renal): 22.5 µM
- TGI (SK-MEL-5 melanoma): 24 µM
- TGI (SW-620 colon): 21.6 µM
- TGI (U251 CNS): 17.2 µM

SMILES: C/C(=N\NC(=O)CC#N)C(CN1CCCCC1)C(c1ccccc1)c1c(O)c2ccccc2oc1=O (centres undefined)
- TGI (786-0 renal): > 100 µM
- TGI (A549 NSCLC): > 100 µM
- TGI (BT-549 breast): > 100 µM
- TGI (DU-145 prostate): > 100 µM
- TGI (EKVX NSCLC): > 100 µM
- TGI (SK-MEL-5 melanoma): > 100 µM
- TGI (SW-620 colon): > 100 µM
- TGI (U251 CNS): > 100 µM

SMILES: CCOP(=O)(OCC)/C(C#N)=C\c1ccsc1
- TGI (786-0 renal): > 100 µM
- TGI (A549 NSCLC): > 100 µM
- TGI (EKVX NSCLC): > 100 µM
- TGI (RXF 393 renal): > 100 µM
- TGI (SK-MEL-5 melanoma): > 100 µM
- TGI (SW-620 colon): > 100 µM
- TGI (U251 CNS): > 100 µM

SMILES: Cc1c(N)nc([C@H](CC(N)=O)NC[C@H](N)C(N)=O)nc1C(=O)N[C@H](C(=O)N[C@H](C)[C@@H](O)CC(=O)N[C@H](C(=O)NC(O[C@@H]1O[C@@H](C)[C@@H](N)[C@@H](O)[C@H]1O)C(O)c1nc(-c2nc(C(=O)NCCCCN)cs2)cs1)[C@@H](C)O)[C@@H](O[C@@H]1O[C@@H](CO)[C@@H](O)[C@H](O)[C@@H]1O[C@H]1O[C@H](CO)[C@@H](O)[C@H](OC(N)=O)[C@@H]1O)c1c[nH]cn1 (some centres undefined)
- TGI (786-0 renal): > 50 µM
- TGI (A549 NSCLC): > 50 µM
- TGI (BT-549 breast): > 50 µM
- TGI (DU-145 prostate): > 50 µM
- TGI (EKVX NSCLC): > 50 µM
- TGI (RXF 393 renal): > 50 µM
- TGI (SK-MEL-5 melanoma): > 50 µM
- TGI (SW-620 colon): > 50 µM
- TGI (U251 CNS): > 50 µM

SMILES: COc1cc2c3c(n(CCCCNC(=O)OC(C)(C)C)c(=O)c2cc1OC)-c1cc2c(cc1C3=O)OCO2
- GI50 (786-0 renal): 25 µM
- TGI (786-0 renal): > 100 µM
- GI50 (A549 NSCLC): > 100 µM
- TGI (A549 NSCLC): > 100 µM
- GI50 (BT-549 breast): > 100 µM
- TGI (BT-549 breast): > 100 µM
- GI50 (DU-145 prostate): > 100 µM
- TGI (DU-145 prostate): > 100 µM
- GI50 (EKVX NSCLC): > 100 µM
- TGI (EKVX NSCLC): > 100 µM
- GI50 (RXF 393 renal): 17.5 µM
- TGI (RXF 393 renal): 62.1 µM
- GI50 (SK-MEL-5 melanoma): > 100 µM
- TGI (SK-MEL-5 melanoma): > 100 µM
- GI50 (SW-620 colon): > 100 µM
- TGI (SW-620 colon): > 100 µM
- GI50 (U251 CNS): > 100 µM
- TGI (U251 CNS): > 100 µM

SMILES: CC(C)=O.O=C([O-])C(F)(F)F.O=C([O-])C(F)(F)F.O=C([O-])C(F)(F)F.O=C([O-])C(F)(F)F.[Rh+2].[Rh+2]
- GI50 (786-0 renal): 71.5 µM
- TGI (786-0 renal): > 100 µM
- GI50 (A549 NSCLC): > 100 µM
- TGI (A549 NSCLC): > 100 µM
- GI50 (EKVX NSCLC): 47.2 µM
- TGI (EKVX NSCLC): > 100 µM
- GI50 (RXF 393 renal): > 100 µM
- TGI (RXF 393 renal): > 100 µM
- GI50 (SK-MEL-5 melanoma): > 100 µM
- TGI (SK-MEL-5 melanoma): > 100 µM
- GI50 (SR leukemia): 22.2 µM
- TGI (SR leukemia): > 100 µM
- GI50 (SW-620 colon): 65.2 µM
- TGI (SW-620 colon): > 100 µM
- GI50 (U251 CNS): 47.5 µM
- TGI (U251 CNS): > 100 µM

SMILES: S=c1nc(C(c2ccccc2)c2ccccc2)[nH][nH]1
- TGI (786-0 renal): > 100 µM
- TGI (A549 NSCLC): > 100 µM
- TGI (EKVX NSCLC): > 100 µM
- TGI (RXF 393 renal): > 100 µM
- TGI (SK-MEL-5 melanoma): > 100 µM
- TGI (SW-620 colon): > 100 µM
- TGI (U251 CNS): > 100 µM

SMILES: CC1(C)OC2CC3COC(=O)C3CC2O1 (centres undefined)
- TGI (786-0 renal): > 100 µM
- TGI (A549 NSCLC): > 100 µM
- TGI (EKVX NSCLC): > 100 µM
- TGI (SK-MEL-5 melanoma): > 100 µM
- TGI (SR leukemia): > 100 µM
- TGI (SW-620 colon): > 100 µM
- TGI (U251 CNS): > 100 µM

SMILES: COc1cc(O)c(C(=O)CC(C)=O)c(OC)c1
- TGI (786-0 renal): > 100 µM
- TGI (A549 NSCLC): > 100 µM
- TGI (EKVX NSCLC): > 100 µM
- TGI (RXF 393 renal): > 100 µM
- TGI (SK-MEL-5 melanoma): > 100 µM
- TGI (SW-620 colon): > 100 µM
- TGI (U251 CNS): > 100 µM

SMILES: O=C(Nc1ccc2ncnc(Nc3ccc(Oc4cccc(F)c4)c(Cl)c3)c2c1)c1ccc(CN2CCOCC2)cc1
- GI50 (786-0 renal): 1.97 µM
- TGI (786-0 renal): 4.33 µM
- GI50 (A549 NSCLC): 2.35 µM
- TGI (A549 NSCLC): 10.3 µM
- GI50 (BT-549 breast): 2.3 µM
- TGI (BT-549 breast): 7.56 µM
- GI50 (DU-145 prostate): 3.14 µM
- TGI (DU-145 prostate): 15.8 µM
- GI50 (EKVX NSCLC): 1.86 µM
- TGI (EKVX NSCLC): 38.2 µM
- GI50 (RXF 393 renal): 2.02 µM
- TGI (RXF 393 renal): 5.83 µM
- GI50 (SK-MEL-5 melanoma): 1.74 µM
- TGI (SK-MEL-5 melanoma): 3.25 µM
- GI50 (SW-620 colon): 3.21 µM
- TGI (SW-620 colon): 11.2 µM
- GI50 (U251 CNS): 2.96 µM
- TGI (U251 CNS): 17.7 µM

SMILES: CC(C)(CN1CCOCC1)C(=O)/C=C/c1ccc(/C=C/C(=O)C(C)(C)CN2CCOCC2)cc1
- TGI (786-0 renal): 4.11 µM
- TGI (A549 NSCLC): 7.42 µM
- TGI (EKVX NSCLC): 4.12 µM
- TGI (RXF 393 renal): 3.45 µM
- TGI (SK-MEL-5 melanoma): 3.23 µM
- TGI (U251 CNS): 2.63 µM

SMILES: Cn1cnc([N+](=O)[O-])c1Sc1nnnn1C
- TGI (786-0 renal): 32.1 µM
- TGI (A549 NSCLC): > 100 µM
- TGI (EKVX NSCLC): 40.8 µM
- TGI (SK-MEL-5 melanoma): 31.6 µM
- TGI (SR leukemia): 28.2 µM
- TGI (SW-620 colon): 26 µM
- TGI (U251 CNS): 34.1 µM

SMILES: C#CCN(N=O)C(=O)NCCCCC(NC(=O)OCc1ccccc1)C(=O)OCc1ccccc1 (centres undefined)
- TGI (786-0 renal): > 100 µM
- TGI (EKVX NSCLC): > 100 µM
- TGI (RXF 393 renal): 81.7 µM
- TGI (SK-MEL-5 melanoma): > 100 µM
- TGI (SW-620 colon): 31.1 µM
- TGI (U251 CNS): > 100 µM

SMILES: O=C(N/C(=C\c1c(O)ccc2ccccc12)c1nc2ccccc2[nH]1)c1ccccc1
- TGI (786-0 renal): > 100 µM
- TGI (A549 NSCLC): > 100 µM
- TGI (EKVX NSCLC): > 100 µM
- TGI (RXF 393 renal): 47.7 µM
- TGI (SK-MEL-5 melanoma): > 100 µM
- TGI (SW-620 colon): > 100 µM
- TGI (U251 CNS): > 100 µM

SMILES: CSC(=Nc1ccccc1Cl)NC(=O)c1ccc(Br)cc1
- TGI (786-0 renal): 86.3 µM
- TGI (A549 NSCLC): > 100 µM
- TGI (EKVX NSCLC): > 100 µM
- TGI (RXF 393 renal): > 100 µM
- TGI (SR leukemia): > 100 µM
- TGI (SW-620 colon): > 100 µM
- TGI (U251 CNS): > 100 µM

SMILES: COC1CC(C)C(OC)c2cc(O)cc(c2O)NC(=O)/C(C)=C/C=C\C(C)C(OC(N)=O)/C(C)=C\C(C)C1OC (centres undefined)
- GI50 (786-0 renal): 4.62 µM
- TGI (786-0 renal): 11.5 µM and 24.3 µM
- GI50 (A549 NSCLC): 0.435 µM and 1.84 µM
- TGI (A549 NSCLC): 27.6 µM and 21.1 µM
- GI50 (DU-145 prostate): 1.59 µM
- TGI (DU-145 prostate): 22.4 µM and 8.94 µM
- GI50 (EKVX NSCLC): 7.95 µM
- TGI (EKVX NSCLC): 25 µM and 22.9 µM
- GI50 (RXF 393 renal): 1.33 µM
- TGI (RXF 393 renal): 9.01 µM and 8.63 µM
- GI50 (SK-MEL-5 melanoma): 0.691 µM and 0.599 µM
- TGI (SK-MEL-5 melanoma): 18.1 µM and 5.29 µM
- GI50 (SR leukemia): 0.191 µM and 0.11 µM
- TGI (SR leukemia): 2 µM and 6.31 µM
- GI50 (SW-620 colon): 0.0544 µM and 0.0649 µM
- TGI (SW-620 colon): 3.7 µM and 3.97 µM
- GI50 (U251 CNS): 0.614 µM
- TGI (U251 CNS): 16.1 µM and 23.6 µM

SMILES: CCN(CC)CCC(=O)OC1C(C)=CC(C)C(=O)CC(C(C)CC2CCC(O)C(OC)C2)OC(=O)C2CCCCN2C(=O)C(=O)[C@@]2(O)OC(CCC2C)CC(OC)\C(C)=C/C=C/C=C/C(C)CC(C)C(=O)C1OC (some centres undefined)
- TGI (786-0 renal): 22.4 µM
- TGI (A549 NSCLC): 16.6 µM
- TGI (BT-549 breast): 15.5 µM
- TGI (DU-145 prostate): 19.7 µM
- TGI (EKVX NSCLC): 17.1 µM
- TGI (RXF 393 renal): 15.2 µM
- TGI (SK-MEL-5 melanoma): 17.2 µM
- TGI (SW-620 colon): 25.3 µM
- TGI (U251 CNS): 23.1 µM

SMILES: CCN(CCCl)CCCCCNc1c2ccccc2nc2ccc(OC)cc12
- TGI (786-0 renal): 1.63 µM
- TGI (A549 NSCLC): 4.4 µM
- TGI (EKVX NSCLC): 18.1 µM
- TGI (RXF 393 renal): 2.4 µM
- TGI (SK-MEL-5 melanoma): 2.69 µM
- TGI (SW-620 colon): 1.63 µM
- TGI (U251 CNS): 2.23 µM

SMILES: NCCOCn1cc(Cc2cccc(OCc3ccccc3)c2)c(=O)[nH]c1=O
- TGI (786-0 renal): > 100 µM
- TGI (A549 NSCLC): > 100 µM
- TGI (EKVX NSCLC): > 100 µM
- TGI (SK-MEL-5 melanoma): > 100 µM
- TGI (SW-620 colon): > 100 µM
- TGI (U251 CNS): > 100 µM

SMILES: CCN(CC)CCCOc1ccc2ncnc(Nc3ccc(Oc4cccc(C(F)(F)F)c4)c(Cl)c3)c2c1
- GI50 (786-0 renal): 1.54 µM
- TGI (786-0 renal): 2.95 µM
- GI50 (DU-145 prostate): 1.39 µM
- TGI (DU-145 prostate): 2.74 µM
- GI50 (EKVX NSCLC): 1.26 µM
- TGI (EKVX NSCLC): 2.85 µM
- GI50 (RXF 393 renal): 1.45 µM
- TGI (RXF 393 renal): 2.97 µM
- GI50 (SR leukemia): 1.41 µM
- TGI (SR leukemia): 3.76 µM
- GI50 (SW-620 colon): 1.61 µM
- TGI (SW-620 colon): 3.09 µM
